From ChEMBL document CHEMBL1201862, “PubChem BioAssay data set” (2004)
Active and inactive are the calls of the source. Cut-off read from the data, not from the text of the source, for most assays here: actives have a measured EC50 and inactives only a lower limit.

Experiments:
[1] = tested on: BJ; assay: BJ-TERT fibroblast viability loss – cell-based, RAS-independent, luminescence, dose response (AID 1933); type: functional; conditions: Homo sapiens
[2] = target: ATP-dependent molecular chaperone HSP82 (Candida albicans (strain WO-1) (Yeast), UniProt C4YTQ8); assay: steroid-induced GRE reporter decrease in yeast – S. cerevisiae, luminescence, Hsp90 inhibitor project, dose response (AID 2400); type: functional, cell-based;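 note: beta-galactosidase luminescence from glucocorticoid response element reporter as proxy for Hsp90 function; inhibitor potency where signal loss means Hsp90 inhibition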
[3] = viability of PTEN-deleted HCT116 cells – cell-based, HCT116 PTEN knockout, dose response (AID 1047); type: functional;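 note: HCT116 colon tumor cells with PTEN knocked out; cells exposed to compound for 60 hours before readout; potency for loss of cell viability measured by luminescence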
[4] = cAMP pathway inhibition in counterscreen cell line – TR-FRET cAMP detection, counter-screen for MC4R biased antagonist project, dose response (AID 602305); type: functional, cell-based;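 note: U2OS cells stimulated with forskolin near its EC80 as the cAMP inducer; potency is for inhibition of forskolin-stimulated cAMP signaling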
[5] = tested on: BJ; assay: cells; type: functional, cell-based; conditions: Homo sapiens
[6] = alpha-synuclein stem-loop luciferase translation blockers – H4 neuroglioma cells, luminescence, confirmation (AID 1988); type: functional, cell-based
[7] = target: Melanocortin receptor 4 (Homo sapiens, UniProt P32245); assay: inhibitors of MC4R cAMP signaling – cell-based, TR-FRET, biased antagonists, dose response (AID 602298); type: functional;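 note: antagonist potency against agonist-stimulated cAMP production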
[8] = viability of HCT116 lacking mutant beta-catenin – cell-based, human colon tumor, dose response (AID 1045); type: functional;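 note: HCT116 colon tumor cells with beta catenin knocked out; cells exposed to compound for 60 hours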
[9] = target: Paired box protein Pax-8 (Homo sapiens, UniProt Q06710); assay: PAX8 transcriptional activity inhibition in RMG-I – RMG-I cells, luciferase, cherry-pick, dose response (AID 687027); type: functional, cell-based;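 note: luciferase reporter driven by Pax8 target thyroperoxidase promoter measured by SteadyGlo luminescence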
[10] = Luminescence-based dose response cell-based high throughput screening assay for cytotoxic compounds using the IEC-6 intestinal epithelial cell line. [Related pubchem assays: 1858 (Summary AID.), 1825 (Counterscreen.), 1907 (Confirmation screen.)]; type: functional
[11] = tested on: BJ; assay: growth inhibition of engineered Ras-driven BJ cells – cell-based, alamar blue fluorescence, cherrypicked samples, dose response (AID 2631); type: functional; conditions: Homo sapiens;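 note: confirmatory dose-response assay in RAS-dependent BJ fibroblasts engineered with TERT, LT and ST, with cytotoxicity read by fluorescence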
[12] = luciferase reporter signal suppression in cells – H4 neuroglioma cells, luminescence, dose response (AID 1990); type: functional, cell-based
[13] = Luminescence Cell-Based Dose Response HTS to Identify Inhibitors of 5'UTR Stem-Loop Driven Prion Protein mRNA Translation in H4 Neuroglioblastoma Cells. [Related pubchem assays: 1827 (Project Summary), 1813 (Primary HTS)]; type: functional
[14] = NIH-3T3 fibroblast cytotoxicity, dose response, cytotoxicity control, cell-based, fluorescence, Alamar Blue, secondary assay (AID 2327); type: functional;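 note: NIH-3T3 mouse fibroblasts cultured with fluconazole at 8 µg/mL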
[15] = DRD fibroblast viability loss – cell-based, non-viral oncogenic, luminescence, dose response (AID 1934); type: functional; conditions: Homo sapiens
[16] = tested on: BJ; assay: BJ-TERT-LT-ST fibroblast viability loss – cell-based, RAS-independent, luminescence, dose response (AID 1935); type: functional; conditions: Homo sapiens;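 note: BJ fibroblasts immortalized with TERT plus LT and ST oncogenes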
[17] = fluconazole-exposed Candida albicans growth modulators – fluorescence, retest, confirmation (AID 2467); type: functional, cell-based
[18] = target: T1, Serine/threonine-protein phosphatase (Candida dubliniensis (strain CD36 / CBS 7987 / NCPF 3949 / NRRLY-17841) (Yeast), UniProt B9W6M3); assay: blockers of CaCl2-induced CDRE-lacZ signaling – S. cerevisiae, luminescence, secondary, dose response (AID 2388); type: functional, cell-based;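 note: yeast reporter cells carrying a calcineurin-responsive lacZ construct stimulated with calcium chloride; luminescent beta-galactosidase reporter signal in whole cells rather than isolated phosphatase activity; potency for inhibition where a drop in reporter signal means calcineurin blockade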
T1 sequence (B9W6M3 whole entry): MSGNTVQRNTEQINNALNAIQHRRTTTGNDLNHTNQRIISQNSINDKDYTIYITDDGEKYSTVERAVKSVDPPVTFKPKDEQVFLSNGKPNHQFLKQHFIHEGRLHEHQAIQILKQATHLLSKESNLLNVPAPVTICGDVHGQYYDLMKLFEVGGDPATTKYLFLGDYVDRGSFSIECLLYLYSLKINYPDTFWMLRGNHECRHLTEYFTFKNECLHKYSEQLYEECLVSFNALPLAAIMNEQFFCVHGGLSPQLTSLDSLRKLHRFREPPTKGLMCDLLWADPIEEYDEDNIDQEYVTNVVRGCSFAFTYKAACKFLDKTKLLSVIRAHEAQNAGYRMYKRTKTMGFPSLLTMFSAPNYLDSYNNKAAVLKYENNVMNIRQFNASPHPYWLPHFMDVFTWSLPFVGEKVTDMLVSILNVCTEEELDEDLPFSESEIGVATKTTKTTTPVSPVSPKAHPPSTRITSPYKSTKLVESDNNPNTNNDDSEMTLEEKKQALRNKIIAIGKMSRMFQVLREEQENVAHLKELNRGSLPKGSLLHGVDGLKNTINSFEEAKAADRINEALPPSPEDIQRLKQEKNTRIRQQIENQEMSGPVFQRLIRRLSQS

[19] = target: T2, Estrogen receptor beta (Homo sapiens, UniProt Q92731);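 note: recombinant ER-beta bound to coactivator SRC1 peptide in presence of estradiol agonist; inhibitors block coactivator peptide binding and lower the FRET signal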
[20] = target: T3, Estrogen receptor (Homo sapiens, UniProt P03372);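 note: potency for inhibiting coactivator peptide recruitment to the receptor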
T3 sequence (P03372 whole entry): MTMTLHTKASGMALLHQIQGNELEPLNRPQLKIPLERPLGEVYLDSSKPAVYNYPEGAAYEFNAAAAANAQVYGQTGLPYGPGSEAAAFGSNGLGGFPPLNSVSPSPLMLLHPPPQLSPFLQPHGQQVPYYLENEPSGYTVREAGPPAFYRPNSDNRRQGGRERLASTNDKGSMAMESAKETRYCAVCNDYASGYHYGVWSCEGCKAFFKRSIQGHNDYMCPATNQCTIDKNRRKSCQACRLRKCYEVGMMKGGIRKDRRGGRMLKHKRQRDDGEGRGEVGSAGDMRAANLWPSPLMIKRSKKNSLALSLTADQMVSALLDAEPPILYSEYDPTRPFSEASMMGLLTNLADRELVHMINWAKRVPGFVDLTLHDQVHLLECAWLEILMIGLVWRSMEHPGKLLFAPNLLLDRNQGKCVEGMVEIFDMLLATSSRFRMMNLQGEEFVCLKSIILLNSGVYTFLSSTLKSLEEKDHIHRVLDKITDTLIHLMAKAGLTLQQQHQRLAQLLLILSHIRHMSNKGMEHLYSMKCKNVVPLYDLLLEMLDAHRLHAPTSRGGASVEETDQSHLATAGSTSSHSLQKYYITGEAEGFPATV

[21] = target: T2, Estrogen receptor beta; assay: blockers of SRC-3 recruitment to ERβ – biochemical, ELISA, streptavidin-HRP readout, orthogonal assay, confirmation (AID 1060)

T2 sequence (Q92731 whole entry): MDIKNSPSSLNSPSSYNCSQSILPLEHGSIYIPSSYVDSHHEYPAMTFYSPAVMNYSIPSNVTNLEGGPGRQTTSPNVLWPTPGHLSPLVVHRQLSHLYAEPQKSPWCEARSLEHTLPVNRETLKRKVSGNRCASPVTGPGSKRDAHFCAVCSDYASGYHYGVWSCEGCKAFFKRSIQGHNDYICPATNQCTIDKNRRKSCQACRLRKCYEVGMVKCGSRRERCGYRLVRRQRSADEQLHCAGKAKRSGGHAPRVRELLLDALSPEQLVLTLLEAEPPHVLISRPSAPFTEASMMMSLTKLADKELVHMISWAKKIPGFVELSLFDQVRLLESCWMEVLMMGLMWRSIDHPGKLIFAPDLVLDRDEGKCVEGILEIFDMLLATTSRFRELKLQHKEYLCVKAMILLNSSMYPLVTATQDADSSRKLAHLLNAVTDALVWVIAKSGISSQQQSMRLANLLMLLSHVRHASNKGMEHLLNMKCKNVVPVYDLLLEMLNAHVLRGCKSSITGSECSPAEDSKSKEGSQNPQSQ
Chain of ATP-dependent molecular chaperone HSP82 (C4YTQ8 whole entry): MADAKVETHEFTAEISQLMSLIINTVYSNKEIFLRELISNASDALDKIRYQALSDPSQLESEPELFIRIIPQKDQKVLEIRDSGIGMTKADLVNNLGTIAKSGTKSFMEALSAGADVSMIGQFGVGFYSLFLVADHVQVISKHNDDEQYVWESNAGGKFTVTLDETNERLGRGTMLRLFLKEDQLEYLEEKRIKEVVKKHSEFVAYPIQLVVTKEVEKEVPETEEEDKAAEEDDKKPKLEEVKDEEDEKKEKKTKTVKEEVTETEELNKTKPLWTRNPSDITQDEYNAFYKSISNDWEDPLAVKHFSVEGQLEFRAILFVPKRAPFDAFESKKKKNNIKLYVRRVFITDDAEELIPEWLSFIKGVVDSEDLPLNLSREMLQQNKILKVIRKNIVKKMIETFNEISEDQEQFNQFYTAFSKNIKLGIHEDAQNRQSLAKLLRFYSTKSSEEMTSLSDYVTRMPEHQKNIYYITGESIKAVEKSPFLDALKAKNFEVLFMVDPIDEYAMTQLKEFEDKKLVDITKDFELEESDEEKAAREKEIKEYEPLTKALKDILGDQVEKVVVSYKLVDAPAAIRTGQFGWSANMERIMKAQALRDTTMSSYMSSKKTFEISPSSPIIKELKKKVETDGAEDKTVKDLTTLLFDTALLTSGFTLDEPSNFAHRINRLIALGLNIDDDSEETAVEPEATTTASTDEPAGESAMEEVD
Chain of Paired box protein Pax-8 (Q06710 whole entry): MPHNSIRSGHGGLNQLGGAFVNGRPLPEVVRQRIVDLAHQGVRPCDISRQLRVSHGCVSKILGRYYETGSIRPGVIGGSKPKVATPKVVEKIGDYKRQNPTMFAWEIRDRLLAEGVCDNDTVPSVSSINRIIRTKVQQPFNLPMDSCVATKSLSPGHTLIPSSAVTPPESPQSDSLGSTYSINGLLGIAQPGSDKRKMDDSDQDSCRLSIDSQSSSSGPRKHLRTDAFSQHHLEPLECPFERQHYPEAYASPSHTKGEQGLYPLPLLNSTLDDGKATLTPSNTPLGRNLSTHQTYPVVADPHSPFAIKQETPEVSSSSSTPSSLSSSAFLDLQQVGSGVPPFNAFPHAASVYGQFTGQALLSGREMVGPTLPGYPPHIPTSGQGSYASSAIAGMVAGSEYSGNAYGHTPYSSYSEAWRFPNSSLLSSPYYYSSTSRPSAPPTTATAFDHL
Chain of Melanocortin receptor 4 (P32245 whole entry): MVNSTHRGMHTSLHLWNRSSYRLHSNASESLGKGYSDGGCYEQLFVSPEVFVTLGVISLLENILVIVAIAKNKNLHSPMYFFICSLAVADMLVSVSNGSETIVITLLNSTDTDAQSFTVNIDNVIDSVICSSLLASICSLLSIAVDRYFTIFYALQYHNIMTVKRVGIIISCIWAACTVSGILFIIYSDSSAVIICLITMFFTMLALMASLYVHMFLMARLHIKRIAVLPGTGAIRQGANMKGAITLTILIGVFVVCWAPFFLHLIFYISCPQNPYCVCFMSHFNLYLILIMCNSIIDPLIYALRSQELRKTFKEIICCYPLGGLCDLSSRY

With `O=C(NC(Nc1nc2ccc([N+](=O)[O-])cc2s1)(C(F)(F)F)C(F)(F)F)c1ccccc1Cl` the EC50 [1] was 1.35 µM (active), the EC50 [2] was 22.6 µM (active) and the EC50 [3] was 0.234 µM (active). The IC50 [4] was > 64.6 µM (inactive), the EC50 [5] was 1.41 µM (active) and the EC50 [6] was 0.242 µM (active). The IC50 [7] was > 64.6 µM (inactive), the EC50 [8] was 0.242 µM (active) and the AC50 [9] was 0.676 µM (active). The IC50 [10] was 1.64 µM (active), the EC50 [11] was 1.11 µM (active) and the EC50 [12] was 0.266 µM (active). For the same molecule, the EC50 [13] was 6.53 µM (active), the EC50 [14] was 12.3 µM (active) and the EC50 [15] was 1.81 µM (active). For the same molecule, the EC50 [16] was 5.65 µM (inconclusive), the EC50 [17] was 0.758 µM (active) and the EC50 [18] was > 180 µM (inactive).

With `O=Cc1ccc2oc3nc4n(c(=O)c3c(=O)c2c1)CCCS4` the IC50 [19] was > 50 µM (not active), the IC50 [20] was 17.8 µM (active) and the IC50 [21] was > 50 µM (not active).
